Patent publication US9790407B2, “Aqueous detergent soluble coating and adhesive and methods of temporary bonding for manufacturing” (priority 2013, dated 2017)

Experiments:
[1] = Water solubility of carboxylic acid coatings (Example 1); conditions: acidic coating; materials dissolved in n,n-dimethylacetamide (DMAC)
Description: (§1) Water solubility is tested and thermal resistance is indicated for each material.

[2] = Detergency solubility of carboxylic acid coatings in KOH based system (Example 1); format: physicochemical; conditions: acidic coating, materials dissolved in DMAC
Description: as §1

Row | Structure (SMILES) | Water solubility (observed) [1] | Detergency (KOH based system) [2]
1 | O=C(O)c1ccc(O)cc1 [P-hydroxybenzoic acid] | Limited/no | Yes
2 | O=C(O)c1ccc(C(=O)O)cc1 [Terephthalic acid] | – | Partial
3 | O=C(O)/C=C/C(=O)O [Fumaric Acid] | Limited/no | Partial
4 | O=C(O)c1ccccc1C(=O)O [Phthalic Acid] | – | Yes
5 | O=C(O)c1cccc(C(=O)O)c1 [Isophthalic acid] | Limited/no | Yes
